Legend:
[1] = target: T1, Monoamine Oxidase A (MAO A) (Homo sapiens, UniProt P21397); assay: radioassay of […]-5-HT turnover in U251S and U251R human glioma cells; assay type: cell-based
T1 construct: gene MAOA
T1 sequence (P21397 1-527): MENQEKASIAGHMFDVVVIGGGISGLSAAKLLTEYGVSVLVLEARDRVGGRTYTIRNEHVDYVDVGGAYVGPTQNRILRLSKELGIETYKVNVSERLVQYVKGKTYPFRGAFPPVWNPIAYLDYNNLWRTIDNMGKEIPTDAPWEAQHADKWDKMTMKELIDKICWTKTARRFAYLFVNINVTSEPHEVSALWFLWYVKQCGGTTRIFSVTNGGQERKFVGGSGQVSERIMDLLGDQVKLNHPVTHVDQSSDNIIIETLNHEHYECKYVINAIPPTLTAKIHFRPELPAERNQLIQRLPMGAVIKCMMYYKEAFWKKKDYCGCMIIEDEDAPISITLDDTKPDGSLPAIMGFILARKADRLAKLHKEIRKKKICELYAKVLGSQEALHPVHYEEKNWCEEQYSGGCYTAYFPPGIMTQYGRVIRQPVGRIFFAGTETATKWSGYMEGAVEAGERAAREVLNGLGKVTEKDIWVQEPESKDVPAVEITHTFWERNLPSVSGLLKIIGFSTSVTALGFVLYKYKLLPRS

[2] = target: T2, Monoamine Oxidase A (MAO A) (Mus musculus, UniProt Q64133); assay: radioassay of […]-5-HT turnover in GL26 mouse glioma cells; assay type: cell-based
T2 construct: gene Maoa
T2 sequence (Q64133 1-526): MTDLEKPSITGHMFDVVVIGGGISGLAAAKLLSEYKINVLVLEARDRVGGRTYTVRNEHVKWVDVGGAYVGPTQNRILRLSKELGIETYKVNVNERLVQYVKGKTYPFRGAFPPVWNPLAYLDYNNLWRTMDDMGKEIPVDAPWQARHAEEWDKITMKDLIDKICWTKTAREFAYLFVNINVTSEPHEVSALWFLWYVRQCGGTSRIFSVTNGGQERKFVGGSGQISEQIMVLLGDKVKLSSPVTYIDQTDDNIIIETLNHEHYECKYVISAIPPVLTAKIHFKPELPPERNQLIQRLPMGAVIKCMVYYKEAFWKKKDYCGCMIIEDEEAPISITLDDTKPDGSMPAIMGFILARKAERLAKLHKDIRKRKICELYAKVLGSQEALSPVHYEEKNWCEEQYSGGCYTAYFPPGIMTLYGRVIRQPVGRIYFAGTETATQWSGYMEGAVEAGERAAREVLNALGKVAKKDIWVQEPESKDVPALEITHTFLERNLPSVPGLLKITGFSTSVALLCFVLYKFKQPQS

Structure (SMILES): NCCc1c[nH]c2ccc(O)cc12 [serotonin]
- radioassay of 14C-5-HT turnover in U251S and U251R human glioma cells [1]: MAO A catalytic activity was determined in human and mouse glioma cell lines using serotonin as the substrate
- radioassay of 14C-5-HT turnover in GL26 mouse glioma cells [2]: MAO A catalytic activity was determined in human and mouse glioma cell lines using serotonin as the substrate

Reference: PMC4924682, “Monoamine oxidase A (MAO A) inhibitors decrease glioma progression” (Oncotarget, 2016)
